Key:
[1] = test system: T lymphocytes (normal mouse spleen cells) stimulated with ConA; experiment: Mouse Spleen Cell ConA Blastogenesis Assay; type: cell-based, mouse (C57Bl/6); conditions: control compound, concentration not given
[2] = test system: BUD-8 human skin fibroblasts; experiment: Fibroblast assay: proliferation of BUD-8 skin cell fibroblasts; type: cell-based; conditions: concentration not given
Method: The human skin cell fibroblast line, BUD-8 was obtained prior to each assay from the American Type Culture Collection. This is a fibroblast-like cell line which was originally derived from the normal skin of a person.
(§1) BUD-8 cell cultures were expanded for use in 25 cm^2 flasks at 37° C. in an atmosphere of 5% CO2 in air. At approximately 4-5 five day intervals, or when confluence was reached, the cells were passaged. This was accomplished by detaching the cells with a Teflon scraper, washing and reseeding the cells at a lower density into fresh tissue culture flasks.
(§2) The effect of the compound of the present invention on the proliferative capacity of human BUD-8 skin fibroblasts was measured with the use of a ^3 H-thymidine incorporation assay using culture conditions which were similar to those used for a Con-A blastogenesis assay, described previously. Cultured skin cells were detached from the surface of tissue culture flasks mechanically with a Teflon scraper. The cells were washed, resuspended in incubation medium and the viabilities were determined. These cells were then plated in triplicate at a density of 2×10^3 cells/0.1 ml/microtiter well for the proliferation assay and a density of 1×10^4 cells/0.1 ml/microtiter well for the assays to quantitate PGE2 and LTB4. To these cells was added incubation medium containing indomethacin to inhibit prostaglandin production, or nordihydroguaiaretic acid (NDGA) to inhibit leukotriene production (positive controls).
After 3 days of culture, 1 uCi ^3 H-thymidine was added in a 50 ul volume to each culture well of the microtiter plates. Eighteen hours later, each of the BUD-8 cultures was examined morphologically for evidence of compound-induced toxicity such as cell rounding or granularity. The thymidine-pulsed cells were then precipitated and the amount of ^3 H-thymidine incorporated was counted in a liquid scintillation counter.
The concentrations of the compounds of the invention which were used in these assays were:
The incubation medium used for culturing the BUD-8 cells was RPMI-1640 medium containing 10% fetal bovine serum, 100 ug/ml streptomycin, 100 U/ml penicillin, 0.2M Hepes buffer solution, 5×10^-5 M 2-mercaptoethanol and 2 mM glutamine.

[3] = test system: LTB4 production by BUD-8 skin cell fibroblasts; experiment: LTB4 production by BUD-8 skin cell fibroblasts (radioimmunoassay); type: cell-based, human; conditions: concentration not given; for % effect on LTB4 production (positive control): 1080 min
Method: as §2
(§3) After 18 hours of culture, samples of the BUD-8 skin cell supernatants were collected from one set of microtiter plates and frozen until assayed for PGE2 or for LTB4 content using the radioimmunoassays described below.
Levels of LTB4 in aliquots of BUD-8 skin cell cultures supernatants were quantitated by radioimmunoassay (New England Nuclear). Briefly, into each polyproplyene tube were mixed 0.1 ml anti-LTB4, 0.1. ml ^3 H-LTB4 and 0.1 ml LTB4 standard or LTB4 containing sample. The BUD-8 skin cell culture supernatants were used directly in the radioimmunoassay. Tubes were refrigerated overnight. A charcoal solution (0.5 ml of 0.5% charcoal Norit A) was added and each tube was centrifuged. The radioactivity in the supernatant was then counted in a liquid scintillation counter.

[4] = test system: PGE2 production by BUD-8 skin cell fibroblasts; experiment: PGE2 production by BUD-8 skin cell fibroblasts (radioimmunoassay); type: cell-based, human; conditions: concentration not given; for % effect on PGE2 production (positive control): 1080 min
Method: as §2, §3
A radioinmunoassay (New England Nuclear) was used to quantitate PGE2 levels in BUD-8 skin cell culture supernatants. Briefly, into each polypropylene tube were mixed 0.1 ml anti-PGE2, 0.1 ml ^125 1-PGE2 and 0.1 ml PGE2 standard or PGE2 containing sample. The BUD-8 skin culture supernatants were diluted 1:2 prior to addition to the radioimmunoassay. Tubes were refrigerated overnight. A polyethylene glycol solution (16%, 6,000 m.w.) was then added to precipitate immune complexes and the radioactivity in the precipitate was counted in a gamma counter.

[5] = test system: GS-109-V-20 human skin cell fibroblasts; experiment: Fibroblast assay: proliferation of GS-109-V-20 skin cell fibroblasts; type: cell-based; conditions: for ^3 H-Thymidine uptake by GS-109-V-20 skin cells (control compound): 2 × 10^-6 M Indomethacin, 2 × 10^-6 N NDGA
Method: The effect of methyl 3-O-3'-(N',N'-dimethylamino-n-propyl)-6-deoxy-D-glucopyranoside on the proliferative capacity of human GS-109-V-20 skin fibroblasts was measured with the use of ^3 H-thymidine incorporation assay. Cultured skin cells were detached from the surface of tissue culture flasks mechanically with a Teflon scraper. The cells were washed, resuspended in incubation medium and the viabilities determined. These cells were then plated in triplicate at a density of 1×10^3 cells/0.1 ml/microtiter well. To these cells was added 0.1 ml incubation medium containing the methyl 3-O-3'-(N',N'-dimethylamino-n-propyl)-6-deoxy-D-glucopyranoside compound.
After 3 days of culture, 1#uCi ^3 H-thymidine was added in 50 ul volume to each culture well of the microtiter plates. Eighteen hours later, each of the GS-109-V-20 cultures was examined morphologically for evidence of drug-induced toxicity such as cell rounding or granularity. The ^3 H-thymidine-pulsed cells were then precipitated and the amount of ^3 H-thymidine incorporation was counted on a liquid scintillation counter.
Methyl 3-O-3'-(N',N'-dimethylamino-n-propyl)-6-deoxy-D-glucopyranoside was suspended directly into the medium by extensive sonication, without being filter-sterilized. A range of doses of this compound was used to measure effects of this compound upon GS-109-V-20 cell proliferation. The following doses were used:
The human skin cell fibroblast line, GS-109-V-20, was obtained from the American Type Culture-Collection. […] These cells were selected for use because they are considered to exist in an initiated state, as opposed to being normal or transformed, and have a more extensive population doubling time and survival period in culture than do normal fibroblasts. In this regard, they would more closely reflect the biological characteristics of psoriatic or rheumatoid synovial fibroblasts which also proliferate more extensively than do normal fibroblasts, but not as extensively as immortalized transformed tumor cells.
as §1, with “The number of GS-109-V-20 cells was” for “BUD-8 cell cultures were”, “use in the described assays by culture” for “use”, “4-5” for “4-5 five”, “by trypsinization,” for “with a Teflon scraper,”

| Structure (SMILES) | % effect on ConA blastogenic response (positive control) ([1]; ConA 1 ug/ml) | Blastogenic response of normal spleen cells to Con-A (positive control) ([1]; ConA 1 ug/ml) | % effect on ConA blastogenic response (positive control) ([1]; ConA 4 ug/ml) [%] | Blastogenic response of normal spleen cells to Con-A (positive control) ([1]; ConA 4 ug/ml) | % effect on BUD-8 proliferation (positive control) [2] [%] | ^3 H-Thymidine uptake by BUD-8 skin cells (positive control) [2] | LTB4 in supernatant (positive control) [3] | calculated LTB4 production/10^5 BUD-8 cells (positive control) [3] | % effect on LTB4 production (positive control) [3] | PGE2 in supernatant (positive control) [4] | calculated PGE2 production/10^5 BUD-8 cells (positive control) [4] [pg per 10^5 cells] | % effect on PGE2 production (positive control) [4] [%] | ^3 H-Thymidine uptake by GS-109-V-20 skin cells (control compound) [5] | inhibition at 2 µM ([5]; Homo sapiens, Fibroblast, read-out: % effect on GS-109-V-20 proliferation (control compound)) [%] |
| --- | --- | --- | --- | --- | --- | --- | --- | --- | --- | --- | --- | --- | --- | --- |
| COc1ccc2c(c1)c(CC(=O)O)c(C)n2C(=O)c1ccc(Cl)cc1 [Indo., indomethacin, reference compound] | +4% | 57.7 ± 8.7 × 10^-3 cpm | -17 | 70.0 ± 5.6 × 10^-3 cpm | -17 | 6,043 ± 184 cpm | 39.4 ± 5.3 pg LTB4 100 ul supernatant | 1,771 pg per 10^5 cells | +10% | 5.3 ± 0.5 pg PGE2 /50 ul supernatant | 187 | -66 | 3,317 ± 351 cpm | 14 |
| CC(Cc1ccc(O)c(O)c1)C(C)Cc1ccc(O)c(O)c1 (stereo not drawn) [NDGA, nordihydroguaiaretic acid, reference compound] | -14% | 47.6 ± 5.0 × 10^-3 cpm | -24 | 64.1 ± 9.2 × 10^-3 cpm | -5 | 6,925 ± 313 cpm | 19.9 ± 1.5 pg LTB4 100 ul supernatant | 794 pg per 10^5 cells | -45% | 14.7 ± 0.8 pg PGE2 /50 ul supernatant | 933 | -8 | 3,179 ± 489 cpm |  |

Source: US5298494A, “Monosaccharides having anti-proliferation and anti-inflammatory activity, compositions and uses thereof” (Greenwich Pharmaceuticals Incorporated, priority 1993, dated 1994)
